For experiment [1], the system named is SUM149. Put plainly: Cytotoxicity in vitro in presence/absence of legumain. Type of experiment: cell-based.
For experiment [2], the system named is HT29. The experiment is described as above. Type of experiment: cell-based, human.
The subject of experiment [3] is SUM149. In words: Cytotoxicity assay (Version 2, automated, AC50) with/without neutrophil elastase. Type of experiment: cell-based. As to conditions: Version 2, activity concentration at −50%. A digest of the protocol: (§1)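 An automated MTT read-out (570 nm, 4 h reagent) followed 72 h at 37 °C with compound from 10^−5 to 10^−13 M, in triplicate, tested with and without 10 nM elastase. AC50, the concentration giving −50% metabolic activity, came from a 4-parameter Hill fit. Scaling ran from medium-only wells (−100%) to DMSO controls (0%).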

In experiment [4] the test system is NCI H292. Described as above. It is filed as cell-based, human. As to conditions: Version 2, activity concentration at −50%. A digest of the protocol: as §1
The subject of a further experiment is 786-O. Described as above. Type of experiment: cell-based, human. The conditions noted are these: Version 2, activity concentration at −50%. A digest of the protocol: as §1
Experiment [5] has as its system HT29. Described as above. It is filed as cell-based, human. As to conditions: Version 2, activity concentration at −50%. The essentials:
as §1

Another experiment deals with rec. human legumain (Homo sapiens, UniProt Q99538). As to conditions: for metabolite formation after incubation with legumain: 16 h incubation, 37° C., pH 5,0; for metabolite formation without addition of active legumain: control without active legumain. Here is the method:
10 μg rec. human legumain are added to 100 μL activation buffer (50 mM sodium acetate buffer/100 mM NaCl, pH 4,0) and incubated for 2 h at 37° C., before 4.9 mL assay buffer (50 mM MES buffer/250 mM NaCl, pH 5,0) is added (final concentration of rec. hum. legumain: 2 μg/mL). For the selected sample, activated legumain is added to the compound solution. Then the solution is incubated at 37° C. At 16 h-a 50 μL sample is taken and added to 100 μL ice-cold methanol. For the untreated control (0 h) ice-cold methanol is pipetted in a tube before the legumain and compound solution are added. Samples can be stored at −20° C. or analyzed directly by HPLC or LCMS. The metabolite and the parent compound (educt) are measured.
Samples from enzymatic assays are added to the double volume of methanol and incubated for at least 30 min at −20° C. to precipitate proteins. Samples are then centrifuged for 10 min, 16100×g at 4° C. and analyzed by RP-HPLC using a gradient (PLRP-S-A1 79.0% PLRP-S—B1 21.0%, duration 24 min). After the centrifugation the supernatant is collected, calibration curves are obtained using the respective compound and the corresponding metabolite solution. A 10 mM DMSO stock solution is diluted with Methanol to achieve the chosen end concentration.

Experiment [6] relates to NCI H292. Put plainly: Cytotoxicity in vitro in presence/absence of legumain. It is filed as cell-based, human.
The subject of experiment [7] is SUM149. In words: Cytotoxicity in vitro in presence/absence of cathepsin B. Type of experiment: cell-based.
The next experiment concerns the target cathepsin B (Homo sapiens, UniProt P07858). In words: Biochemical cathepsin B cleavage assay (metabolite detection by RP-HPLC). How it is done: Incubation of samples starts with addition of cathepsin B solution (2.5 μg in […] 50 mM sodium phosphate buffer, pH 6.0/2 mM DTT). The incubation is performed at 40° C., and after 16 h incubation a 40 μL sample is taken and added to 80 μL ice-cold methanol. […] The metabolite (product) and the parent compound (educt) is measured.

The test system of experiment [8] is NCI H292. In words: Cytotoxicity in vitro in presence/absence of cathepsin B. It is filed as cell-based, human.
Experiment [9] has as its system HT29. The experiment is described as above. Type of experiment: cell-based, human.
[10] abbreviates: SUM149, with (+) neutrophil elastase.
Where [11] appears, read: SUM149, without (−) neutrophil elastase.
Where [12] appears, read: NCI H292, with (+) neutrophil elastase.
[13] abbreviates: NCI H292, without (−) neutrophil elastase.
[14] abbreviates: without (−) neutrophil elastase.
Where [15] appears, read: HT29, with (+) neutrophil elastase.
Setting [16] is: HT29, without (−) neutrophil elastase.

The source of these data is US20240408222A1, “COMPOUNDS, PHARMACEUTICAL COMPOSITIONS, AND METHODS FOR THE TREATMENT, PREVENTION, OR MANAGEMENT OF HYPERPRO[…]” (VINCERX PHARMA GMBH, priority 2021, published 2024).

As a reminder, the IC50 is the concentration needed to halve the response being measured. High values mean a need for much substance, low ones inhibition by little substance. Usually AC50 stands for the concentration at which the activity in the assay is half-maximal. High values mean activity only at high concentration, low ones activity at low concentration.

Chain of rec. human legumain (Q99538 18-323 limits assumed): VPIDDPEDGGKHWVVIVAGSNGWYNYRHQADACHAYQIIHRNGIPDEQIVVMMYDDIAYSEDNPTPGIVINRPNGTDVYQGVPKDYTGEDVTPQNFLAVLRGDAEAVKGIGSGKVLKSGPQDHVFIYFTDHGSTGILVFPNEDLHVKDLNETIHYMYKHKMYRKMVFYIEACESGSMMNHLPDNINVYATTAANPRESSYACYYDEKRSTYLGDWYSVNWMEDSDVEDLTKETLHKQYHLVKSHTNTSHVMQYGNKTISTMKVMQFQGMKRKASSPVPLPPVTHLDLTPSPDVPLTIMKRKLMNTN

As for “Sodium N-{14-[4-({[(1S)-2-carboxylato-1-{3-[({3-[(propylcarbamoyl)amino]phenyl}sulfonyl) amino]phenyl}ethyl]carbamoyl}amino)anilino]-14-oxo-4,7,10-trioxa-13-azatetradecan-1-oyl}-L-alanyl-N-methyl-L-alanyl-N′—[(S)-{[16,20-difluoro-2,3,4,5-tetrahydro-12H-13,17-(azeno)-11,7-(metheno)-1,6,12,14-benzodioxadiazacyclononadecin-9-yl]methyl} (methyl)oxido-lambda^6-sulfanylidene]-L-aspartamide [Compound 13]”, the half-maximal inhibitory concentration (IC50) in the experiment on SUM149 [1] (SUM149, with (+) legumain) is 11 to 100 nM; with SUM149 [1] (SUM149, without (−) legumain), 11 to 100 nM; in the experiment with HT29 [2] (HT29, with (+) legumain) it was 11 to 100 nM; in the experiment on HT29 [2] (HT29, without (−) legumain) it was 11 to 100 nM; in the experiment with NCI H292 [6] (NCI H292, with (+) legumain) it was 11 to 100 nM; with NCI H292 [6] (NCI H292, without (−) legumain) it was 11 to 100 nM. Besides, the AC50 with SUM149 [3] (setting [10]) was 11 to 100 nM; with SUM149 [3] (setting [11]), more than 1000 nM; with NCI H292 [4] (setting [12]) it was 100 to 1000 nM; in the experiment with NCI H292 [4] (setting [13]) it was 100 to 1000 nM; with 786-O (with (+) neutrophil elastase), 11 to 100 nM; with 786-O (setting [14]), more than 1000 nM. In addition, the concentration at half-maximal activity (AC50) in the experiment on HT29 [5] (setting [15]) was 11 to 100 nM; with HT29 [5] (setting [16]) it was more than 1000 nM. Further, on rec. human legumain, the “metabolite formation after incubation with legumain” value is “complete metabolite formation”. Further, the “metabolite formation without addition of active legumain” value on rec. human legumain is on record as “no metabolite formation is detected”.
On to `CCCNC(=O)Nc1cccc(S(=O)(=O)Nc2cccc([C@@H](CC(=O)[O-])NC(=O)Nc3ccc(NC(=O)NCCOCCOCCOCCC(=O)N[C@@H](C)C(=O)N(C)[C@@H](C)C(=O)N[C@@H](CC(=O)N=[S@@](C)(=O)Cc4cc5cc(c4)OCCCCOc4cc(F)ccc4-c4nc(ncc4F)N5)C(N)=O)cc3)c2)c1.[Na+]` [Compound 8, sodium N-{14-[4-({[(1R)-2-carboxylato-1-{3-[({3-[(propylcarbamoyl)amino]phenyl}sulfonyl)amino]phenyl}ethyl]carbamoyl}amino)anilino]-14-oxo-4,7,10-trioxa-13-azatetradecan-1-oyl}-L-alanyl-N-methyl-L-alanyl-N′—[(S)-{[16,20-difluoro-2,3,4,5-tetrahydro-12H-13,17-(azeno)-11,7-(metheno)-1,6,12,14-benzodioxadiazacyclononadecin-9-yl]methyl}(methyl)oxido-lambda^6-sulfanylidene]-L-aspartamide], for which the IC50 with SUM149 [1] (SUM149, with (+) legumain) lay in the range of 11 to 100 nM; with SUM149 [1] (SUM149, without (−) legumain), 11 to 100 nM; with HT29 [2] (HT29, with (+) legumain) it was 11 to 100 nM; in the experiment on HT29 [2] (HT29, without (−) legumain), 11 to 100 nM; with NCI H292 [6] (NCI H292, with (+) legumain) it was 1.1 to 10 nM; in the experiment with NCI H292 [6] (NCI H292, without (−) legumain), 11 to 100 nM. For the same compound, the AC50 in the experiment on SUM149 [3] (setting [10]) was 100 to 1000 nM; in the experiment on SUM149 [3] (setting [11]), more than 1000 nM; in the experiment on NCI H292 [4] (setting [12]), 100 to 1000 nM; with NCI H292 [4] (setting [13]) it was 100 to 1000 nM; in the experiment with 786-O (with (+) neutrophil elastase) it was 100 to 1000 nM; in the experiment on 786-O (setting [14]) it was more than 1000 nM. For the same compound, the figures for the AC50 in the experiment with HT29 [5] (setting [15]) and with HT29 [5] (setting [16]) were 11 to 100 nM and more than 1000 nM, respectively. Further, the “metabolite formation after incubation with legumain” value at rec. human legumain is “complete metabolite formation”. Also, at rec. human legumain, the “metabolite formation without addition of active legumain” value is reported as “no metabolite formation is detected”.
Turning to `CCCNC(=O)Nc1cccc(S(=O)(=O)Nc2cccc([C@@H](CC(=O)[O-])NC(=O)Nc3ccc(NC(=O)NCCOCCOCCOCCC(=O)N[C@H](C(=O)N[C@@H](CCCNC(N)=O)C(=O)N=[S@@](C)(=O)Cc4cc5cc(c4)OCCCCOc4cc(F)ccc4-c4nc(ncc4F)N5)C(C)C)cc3)c2)c1.[Na+]` [Compound 7, sodium N-{14-[4-({[(1R)-2-carboxylato-1-{3-[({3-[(propylcarbamoyl)amino]phenyl}sulfonyl)amino]phenyl}ethyl]carbamoyl}amino)anilino]-14-oxo-4,7,10-trioxa-13-azatetradecan-1-oyl}-L-valyl-N^5-carbamoyl-N—[(S)-{[16,20-difluoro-2,3,4,5-tetrahydro-12H-13,17-(azeno)-11,7-(metheno)-1,6,12,14-benzodioxadiazacyclononadecin-9-yl]methyl}(methyl)oxido-lambda^6-sulfanylidene]-L-ornithinamide], the AC50 lay within 11 to 100 nM in the experiment with SUM149 [3] (setting [10]); 11 to 100 nM in the experiment with SUM149 [3] (setting [11]); 100 to 1000 nM with NCI H292 [4] (setting [12]); 100 to 1000 nM with NCI H292 [4] (setting [13]); 11 to 100 nM in the experiment on 786-O (with (+) neutrophil elastase); 11 to 100 nM with 786-O (setting [14]). Moreover, the AC50 in the experiment on HT29 [5] (setting [15]) and in the experiment on HT29 [5] (setting [16]) was 11 to 100 nM each time. For the same compound, the concentration for half-maximal inhibition (IC50) in the experiment with SUM149 [7] (SUM149, with (+) cathepsin) was 11 to 100 nM; in the experiment on SUM149 [7] (SUM149, without (−) cathepsin), more than 100 nM; in the experiment with NCI H292 [8] (NCI H292, with (+) cathepsin), 11 to 100 nM; with NCI H292 [8] (NCI H292, without (−) cathepsin) it was 11 to 100 nM; with HT29 [9] (HT29, with (+) cathepsin) it was more than 100 nM; with HT29 [9] (HT29, without (−) cathepsin), more than 100 nM. Besides, the “metabolite detected after incubation with cathepsin B” value on cathepsin B (16 h incubation, 40° C., pH 6.0) stood at 16%. Besides, on cathepsin B (control without active cathepsin B), the “metabolite formation without addition of active cathepsin B” value is given as “no metabolite formation is detected”.
